Experiments:
[1] = system: patients with moderate to severe chronic low back pain; experiment: Quality of analgesia, low back pain study; assay type: in vivo, human; conditions: LOCF, ITT
Experimental: Quality of analgesia was assessed at clinic visits during the titration and fixed-dose periods. The patient was prompted with the question, “How would you rate the quality of your pain relief at this time?” and responses were selected from poor, fair, good, very good, and excellent.
Global assessment and quality of analgesia ratings were summarized descriptively by treatment group for both the titration and fixed-dose periods. Treatments were compared at each visit in the fixed-dose period, globally and in pairwise fashion, using the Cochran-Mantel-Haenszel row mean scores (CMH-RMS) test, using equally spaced scores.

[2] = Plasma concentrations of oxycodone, oxymorphone, noroxycodone, naltrexone and 6β-naltrexol by solid phase extraction LC-MS/MS
Text: Patients with moderate-to-severe pain due to osteoarthritis of the hip or knee were randomly assigned to one of four treatment groups as shown in Table 3 of Example 1. Plasma samples were obtained for each patient at the beginning of Weeks 1, 2, 3 and at the end of dosing during Week 3.
For the analysis of linearity and dose proportionality, linear equation coefficients were obtained by averaging patient-specific slopes and intercepts obtained by within-patient least squares regression. This was done to account for the correlation among the repeated measurements due to the patient's contributing data at each dose level. The resulting slopes among treatment groups were compared by one-way analysis of variance (ANOVA), and a one-sample t-test assessed the common slope's difference from zero. A measure of deviation from linearity was constructed as the difference between the concentration at the middle dose versus the average of the concentrations at the lower and higher doses. Due to equal spacing of doses, this measure has expectation zero under the hypothesis of linearity. As above, ANOVA and t-tests were used to assess linearity.
To achieve symmetry, modified log transformations were used.

What does the source list for COc1ccc2c3c1O[C@H]1C(=O)CC[C@@]4(O)[C@@H](C2)N(C)CC[C@]314 [OXY QID, oxycodone]?
Quality of analgesia EXCELLENT (4), number of patients ([1]; fixed dose period week 1): 25; Quality of analgesia EXCELLENT (4), percent of patients ([1]; fixed dose period week 1): 12.1%; Quality of analgesia FAIR (1), number of patients ([1]; fixed dose period week 1): 26; Quality of analgesia FAIR (1), percent of patients ([1]; fixed dose period week 1): 12.6%; Quality of analgesia GOOD (2), number of patients ([1]; fixed dose period week 1): 69; Quality of analgesia GOOD (2), percent of patients ([1]; fixed dose period week 1): 33.5%; Quality of analgesia POOR (0), number of patients ([1]; fixed dose period week 1): 33; Quality of analgesia POOR (0), percent of patients ([1]; fixed dose period week 1): 16.0%; Quality of analgesia VERY GOOD (3), number of patients ([1]; fixed dose period week 1): 52; Quality of analgesia VERY GOOD (3), percent of patients ([1]; fixed dose period week 1): 25.2%; Quality of analgesia EXCELLENT (4), number of patients ([1]; fixed dose period week 2): 24; Quality of analgesia EXCELLENT (4), percent of patients ([1]; fixed dose period week 2): 11.7%; Quality of analgesia FAIR (1), number of patients ([1]; fixed dose period week 2): 27; Quality of analgesia FAIR (1), percent of patients ([1]; fixed dose period week 2): 13.1%; Quality of analgesia GOOD (2), number of patients ([1]; fixed dose period week 2): 70; Quality of analgesia GOOD (2), percent of patients ([1]; fixed dose period week 2): 34.0%; Quality of analgesia POOR (0), number of patients ([1]; fixed dose period week 2): 32; Quality of analgesia POOR (0), percent of patients ([1]; fixed dose period week 2): 15.5%; Quality of analgesia VERY GOOD (3), number of patients ([1]; fixed dose period week 2): 52; Quality of analgesia VERY GOOD (3), percent of patients ([1]; fixed dose period week 2): 25.2%; Quality of analgesia EXCELLENT (4), number of patients ([1]; fixed dose period week 4): 20; Quality of analgesia EXCELLENT (4), percent of patients ([1]; fixed dose period week 4): 9.7%; Quality of analgesia FAIR (1), number of patients ([1]; fixed dose period week 4): 28; Quality of analgesia FAIR (1), percent of patients ([1]; fixed dose period week 4): 13.6%; Quality of analgesia GOOD (2), number of patients ([1]; fixed dose period week 4): 63; Quality of analgesia GOOD (2), percent of patients ([1]; fixed dose period week 4): 30.6%; Quality of analgesia POOR (0), number of patients ([1]; fixed dose period week 4): 35; Quality of analgesia POOR (0), percent of patients ([1]; fixed dose period week 4): 17.0%; Quality of analgesia VERY GOOD (3), number of patients ([1]; fixed dose period week 4): 59; Quality of analgesia VERY GOOD (3), percent of patients ([1]; fixed dose period week 4): 28.6%; Quality of analgesia EXCELLENT (4), number of patients ([1]; fixed dose period week 6): 24; Quality of analgesia EXCELLENT (4), percent of patients ([1]; fixed dose period week 6): 11.7%; Quality of analgesia FAIR (1), number of patients ([1]; fixed dose period week 6): 34; Quality of analgesia FAIR (1), percent of patients ([1]; fixed dose period week 6): 16.5%; Quality of analgesia GOOD (2), number of patients ([1]; fixed dose period week 6): 67; Quality of analgesia GOOD (2), percent of patients ([1]; fixed dose period week 6): 32.5%; Quality of analgesia POOR (0), number of patients ([1]; fixed dose period week 6): 36; Quality of analgesia POOR (0), percent of patients ([1]; fixed dose period week 6): 17.5%; Quality of analgesia VERY GOOD (3), number of patients ([1]; fixed dose period week 6): 44; Quality of analgesia VERY GOOD (3), percent of patients ([1]; fixed dose period week 6): 21.4%; Quality of analgesia EXCELLENT (4), number of patients ([1]; fixed dose period week 8): 24; Quality of analgesia EXCELLENT (4), percent of patients ([1]; fixed dose period week 8): 11.7%; Quality of analgesia FAIR (1), number of patients ([1]; fixed dose period week 8): 35; Quality of analgesia FAIR (1), percent of patients ([1]; fixed dose period week 8): 17.0%; Quality of analgesia GOOD (2), number of patients ([1]; fixed dose period week 8): 72; Quality of analgesia GOOD (2), percent of patients ([1]; fixed dose period week 8): 35.0%; Quality of analgesia POOR (0), number of patients ([1]; fixed dose period week 8): 33; Quality of analgesia POOR (0), percent of patients ([1]; fixed dose period week 8): 16.0%; Quality of analgesia VERY GOOD (3), number of patients ([1]; fixed dose period week 8): 41; Quality of analgesia VERY GOOD (3), percent of patients ([1]; fixed dose period week 8): 19.9%; Quality of analgesia EXCELLENT (4), number of patients ([1]; fixed dose period week 10): 24; Quality of analgesia EXCELLENT (4), percent of patients ([1]; fixed dose period week 10): 11.7%; Quality of analgesia FAIR (1), number of patients ([1]; fixed dose period week 10): 35; Quality of analgesia FAIR (1), percent of patients ([1]; fixed dose period week 10): 17.0%; Quality of analgesia GOOD (2), number of patients ([1]; fixed dose period week 10): 66; Quality of analgesia GOOD (2), percent of patients ([1]; fixed dose period week 10): 32.0%; Quality of analgesia POOR (0), number of patients ([1]; fixed dose period week 10): 35; Quality of analgesia POOR (0), percent of patients ([1]; fixed dose period week 10): 17.0%; Quality of analgesia VERY GOOD (3), number of patients ([1]; fixed dose period week 10): 45; Quality of analgesia VERY GOOD (3), percent of patients ([1]; fixed dose period week 10): 21.8%; Quality of analgesia EXCELLENT (4), number of patients ([1]; fixed dose period week 12): 21; Quality of analgesia EXCELLENT (4), percent of patients ([1]; fixed dose period week 12): 10.2%; Quality of analgesia FAIR (1), number of patients ([1]; fixed dose period week 12): 40; Quality of analgesia FAIR (1), percent of patients ([1]; fixed dose period week 12): 19.4%; Quality of analgesia GOOD (2), number of patients ([1]; fixed dose period week 12): 64; Quality of analgesia GOOD (2), percent of patients ([1]; fixed dose period week 12): 31.1%; Quality of analgesia POOR (0), number of patients ([1]; fixed dose period week 12): 37; Quality of analgesia POOR (0), percent of patients ([1]; fixed dose period week 12): 18.0%; Quality of analgesia VERY GOOD (3), number of patients ([1]; fixed dose period week 12): 43; Quality of analgesia VERY GOOD (3), percent of patients ([1]; fixed dose period week 12): 20.9%; Mean plasma concentration versus dose level over the course of the study ([2]; FIGS. 1 and 2): increased linearly with increasing dose levels; Plasma concentration of oxycodone (ng/mL) versus dose of oxycodone (mg/day): slope of linear equation ([2]; average of patient-specific regressions, slope p<0.001, t-test): 0.4223; Plasma concentration of oxycodone versus dose of oxycodone (mg/day): intercept of linear equation ([2]; average of patient-specific within-patient least squares regressions, all active treatments): 2.28 ng/mL

Reference: patent US20060009478A1, “Methods for the treatment of back pain” (priority 2003, published 2006)
